Where a SMILES comes first, the peptide text is derived from it. The star is where a group is joined. Palmitoyl = CCCCCCCCCCCCCCCC(=O)*
Columns and labels:
PAR4 = biological target: T1, PAR4 (Homo sapiens, UniProt Q96RI0); experiment: Human platelet aggregation, PAR4 agonist AYPGKF; assay type: cell-based; settings: human platelets; 200 μM AYPGKF
T1 construct: Platelets were isolated from platelet rich plasma (PRP) using Sepharose 2B columns; endogenous in cells; host or cells: human platelets from healthy donors, gel-filtered
T1 sequence (Q96RI0 18-385): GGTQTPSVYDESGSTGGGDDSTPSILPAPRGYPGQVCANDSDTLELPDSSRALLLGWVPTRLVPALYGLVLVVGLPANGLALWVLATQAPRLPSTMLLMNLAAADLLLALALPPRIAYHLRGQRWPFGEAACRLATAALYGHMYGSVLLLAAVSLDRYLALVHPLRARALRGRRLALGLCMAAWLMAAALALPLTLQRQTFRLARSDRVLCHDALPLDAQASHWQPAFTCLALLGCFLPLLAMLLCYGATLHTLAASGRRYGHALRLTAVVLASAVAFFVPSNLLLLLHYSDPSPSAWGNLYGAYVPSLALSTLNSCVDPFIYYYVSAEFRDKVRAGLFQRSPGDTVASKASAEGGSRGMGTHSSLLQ
Procedure: (§1) A, Depiction of the mechanism of action of the cell-penetrating PZ-128 pepducin compound targeting the third intracellular loop (red) of PAR1. B, The NMR structure of PZ-128 was determined by simulated annealing methods using 210 distance restraints and included restraints to the proximal 3 hydrocarbons of the lipid. […] D, PZ-128 inhibits PAR1-dependent platelet aggregation. Gel filtered human platelets were treated with various concentrations of PZ-128 and then challenged with the PAR1 agonist SFLLRN (2.5 μM), 20 μM ADP, 200 μM AYPGKF or 1 mg/ml Ristocetin. E, Human platelets were treated with 3 μM PZ-128, 3 μM RWJ-56110, or 5% dextrose vehicle before the addition of various concentrations of thrombin (n=3-5).
(§2) PZ-128 also markedly right-shifted thrombin-induced aggregation by 5-fold. By comparison, the small molecule RWJ-56110 which antagonizes PAR1 at the extracellular ligand-binding site gave a 2-fold right shift in the thrombin activation curve of human platelets.
(§3) Whole blood from healthy donors was collected into a 30 ml syringe containing sodium citrate (0.4% vol/vol final). Platelets were isolated from platelet rich plasma (PRP) using Sepharose 2B columns in modified PIPES buffer.

[1] = system: baboon arterial thrombosis (platelet deposition); experiment: Baboon arterial-venous shunt Dacron graft thrombosis; assay type: in vivo, baboon (Papio anubis)
Procedure: 10-14 kg baboons were administered 3 mg/kg or 6 mg/kg PZ-128 by a 45 min iv infusion versus 5% dextrose vehicle (n=2-6). A, Net platelet accumulation was measured during the first 60 minutes of thrombus growth on a femoral arterio-venous Dacron graft (4 mm ID) inserted between silicone rubber tubing segments comprising a high-flow shunt. Blood flow was maintained at 100 ml/min by distal clamping the shunt. Autologous platelets were radiolabeled with indium-111 (1 mCi), and reinjected into the animals before thrombosis experiments. B, Deposition of platelets (mean±SD) was quantified in the head plus tail regions of the thrombus by 111Indium-labeled platelet imaging with 5-minute data acquisition periods starting at 60 min after initiation of the infusion. Statistical significance was determined using a variance stabilizing LN (natural log) transformation and a repeated measures mixed effects model with an autoregressive covariance structure. Subjects (individual baboons) were included in the model as a random effect. P=0.606 for 3 mg/kg vs vehicle and P=0.0028 for 6 mg/kg vs vehicle.
Baboon arterial thrombosis experiments were conducted to determine whether the PZ-128 micelles had the potential to inhibit arterial thrombosis in primates. An arterial-venous shunt equipped with a Dacron vascular graft with an internal lumen diameter of 4 mm at a high flow rate of 100 ml/min was used. Thrombogenesis was assessed by measuring platelet content of the head and tail regions of the developing thrombus (FIG. 4A) and quantified by ^111Indium-labeled platelet imaging over 60 min. PZ-128 micelles at a dose of 1 mg/kg had no effect on platelet-thrombus deposition in the baboon.
Non-terminal thrombosis and platelet aggregation studies were performed on 12 healthy male baboons (Papio anubis) weighing 9-12 kg at the Oregon National Primate Research Center (ONPRC). […] Platelet counts and hematocrit were measured immediately. […]

human platelets (ADP) = experiment: Human platelet aggregation, ADP; assay type: cell-based; settings: 20 μM ADP
Procedure: as §1, §2, §3

[2] = Bleeding time, platelet counts and hematocrit in baboons; assay type: in vivo; settings: baboon; all doses tested (1-6 mg/kg)
Procedure: Whether PZ-128 had any adverse effects on hemostasis or coagulation indices in baboons and monkeys was evaluated. At all doses tested (1-6 mg/kg), PZ-128 micelles had no effect on bleeding time, platelet counts or hematocrit in baboons (Table 2).
Non-terminal thrombosis and platelet aggregation studies were performed on 12 healthy male baboons (Papio anubis) weighing 9-12 kg at the Oregon National Primate Research Center (ONPRC). […] Whole blood (10 ml) was collected into PPACK at a final concentration of 100 μg/ml just prior to infusion (baseline) and 15 min to 24 h after the PZ-128 micelle infusion was terminated. Platelet counts and hematocrit were measured immediately. PRP was prepared from whole blood and platelet aggregation performed as described above. Bleeding time (BT) measurements were performed on the shaved volar surface of the forearm using the standard template method.

[3] = system: guinea pig carotid artery thrombosis; experiment: Guinea pig carotid artery FeCl3 injury arterial thrombosis model; assay type: in vivo
Procedure: A carotid artery FeCl3 injury model was used in guinea pigs to assess the anti-thrombotic efficacy of PZ-128 micelles within 15 min of initiation of drug administration. FeCl3 denudes the artery and exposes type I collagen and other subendothelial matrix proteins to initiate platelet-dependent thrombosis. Guinea pigs received 10 min intravenous infusions of PZ-128 micelles, 5 min prior to carotid artery injury. […] Mean occlusion times increased by 4-fold to 40 min at doses above 0.05 mg/kg PZ-128.
Male Hartley guinea pigs (150˜220 g) were purchased from Charles River Laboratories. A 0.61 mm-diameter catheter was inserted into the left jugular vein of anesthetized animals for administration of infusions of 5% USP dextrose vehicle or PZ-128 micelles. A 0.5 V-Doppler probe (Transonic Systems, Ithaca, N.Y.) was placed around the right carotid artery to record blood flow. A range of doses of PZ-128 micelles from 0.05 to 1.6 mg/kg in 0.9 ml volumes were delivered at an injection rate of 0.09 ml/min by a Harvard syringe pump. Five minutes after the infusion ended, arterial thrombosis was induced by placing a 5×5 mm^2 piece of filter paper soaked in freshly made 20% FeCl3 solution on the right carotid artery 5 mm distal to the probe for 20 minutes. […] To examine possible synergistic effects of PZ-128 micelles and P2Y12-ADP receptor inhibition, 1 mg/kg clopidogrel was administered by oral gavage 4 hours prior to FeCl3 injury. In these synergy experiments, the maximum endpoint was set at 90 minutes for occlusion time.

In the case of `CCCCCCCCCCCCCCCC(=O)N[C@@H](CCCCN)C(=O)N[C@@H](CCCCN)C(=O)N[C@@H](CO)C(=O)N[C@@H](CCCNC(=N)N)C(=O)N[C@@H](C)C(=O)N[C@@H](CC(C)C)C(=O)N[C@@H](Cc1ccccc1)C(N)=O` [PZ-128, palmitate-KKSRALF-NH2] (Palmitoyl-KKSRALF-NH2), the “Inhibitory activity against PAR4 (AYPGKF) aggregation” value (PAR4) was “no inhibitory activity”, the “Effect on platelet-thrombus deposition” value ([1]; 1 mg/kg) was “no effect” and the “Effect against platelet arterial thrombus formation vs vehicle” value ([1]; 3 mg/kg iv infusion, P=0.606) was “not significant”. The “Effect against platelet arterial thrombus formation vs vehicle” value ([1]; 6 mg/kg iv infusion, P=0.0028) was “significant protective effect”, the “Inhibitory activity against ADP aggregation” value (human platelets (ADP)) was “no inhibitory activity” and the “Effect on bleeding time, platelet counts or hematocrit” value [2] was “no effect”. The “EC50, protection against arterial occlusion” value ([3]; 10 min iv infusion 5 min prior to FeCl3 carotid injury) was 0.075 mg/kg, the “Increase of mean occlusion time” value ([3]; doses above 0.05 mg/kg) was 4 fold and the Mean occlusion time ([3]; doses above 0.05 mg/kg) was 40 min. The “Protection against arterial occlusion when used alone” value ([3]; sub-therapeutic dose alone (PZ-128 0.05 mg/kg; clopidogrel 1 mg/kg PO)) was “non-significant protection”.
